The term IC50 denotes the concentration needed to halve the response being measured. A lower IC50 goes with higher potency.

One assay addresses BRM (Homo sapiens, UniProt P51531). The assay is described as follows: ATPase catalytic activity assay (ADP-Glo), BRM. As to conditions: 30 nM BRM, 400 μM ATP; for IC50: BRM ATPase: IC50 (uM). On the technique in general: ADP-Glo first removes unused ATP, then detects ADP through luciferase.
In a further assay the target is BRG-1 (Homo sapiens, UniProt P51532). The assay is described as follows: ATPase catalytic activity assay (ADP-Glo), BRG-1. As to conditions: for Emax: 1 h, read-out: BRG1 Max % Inhibition, ADP-Glo, 30 nM BRG-1, 400 μM ATP.
Chain of BRG-1 (P51532 whole entry): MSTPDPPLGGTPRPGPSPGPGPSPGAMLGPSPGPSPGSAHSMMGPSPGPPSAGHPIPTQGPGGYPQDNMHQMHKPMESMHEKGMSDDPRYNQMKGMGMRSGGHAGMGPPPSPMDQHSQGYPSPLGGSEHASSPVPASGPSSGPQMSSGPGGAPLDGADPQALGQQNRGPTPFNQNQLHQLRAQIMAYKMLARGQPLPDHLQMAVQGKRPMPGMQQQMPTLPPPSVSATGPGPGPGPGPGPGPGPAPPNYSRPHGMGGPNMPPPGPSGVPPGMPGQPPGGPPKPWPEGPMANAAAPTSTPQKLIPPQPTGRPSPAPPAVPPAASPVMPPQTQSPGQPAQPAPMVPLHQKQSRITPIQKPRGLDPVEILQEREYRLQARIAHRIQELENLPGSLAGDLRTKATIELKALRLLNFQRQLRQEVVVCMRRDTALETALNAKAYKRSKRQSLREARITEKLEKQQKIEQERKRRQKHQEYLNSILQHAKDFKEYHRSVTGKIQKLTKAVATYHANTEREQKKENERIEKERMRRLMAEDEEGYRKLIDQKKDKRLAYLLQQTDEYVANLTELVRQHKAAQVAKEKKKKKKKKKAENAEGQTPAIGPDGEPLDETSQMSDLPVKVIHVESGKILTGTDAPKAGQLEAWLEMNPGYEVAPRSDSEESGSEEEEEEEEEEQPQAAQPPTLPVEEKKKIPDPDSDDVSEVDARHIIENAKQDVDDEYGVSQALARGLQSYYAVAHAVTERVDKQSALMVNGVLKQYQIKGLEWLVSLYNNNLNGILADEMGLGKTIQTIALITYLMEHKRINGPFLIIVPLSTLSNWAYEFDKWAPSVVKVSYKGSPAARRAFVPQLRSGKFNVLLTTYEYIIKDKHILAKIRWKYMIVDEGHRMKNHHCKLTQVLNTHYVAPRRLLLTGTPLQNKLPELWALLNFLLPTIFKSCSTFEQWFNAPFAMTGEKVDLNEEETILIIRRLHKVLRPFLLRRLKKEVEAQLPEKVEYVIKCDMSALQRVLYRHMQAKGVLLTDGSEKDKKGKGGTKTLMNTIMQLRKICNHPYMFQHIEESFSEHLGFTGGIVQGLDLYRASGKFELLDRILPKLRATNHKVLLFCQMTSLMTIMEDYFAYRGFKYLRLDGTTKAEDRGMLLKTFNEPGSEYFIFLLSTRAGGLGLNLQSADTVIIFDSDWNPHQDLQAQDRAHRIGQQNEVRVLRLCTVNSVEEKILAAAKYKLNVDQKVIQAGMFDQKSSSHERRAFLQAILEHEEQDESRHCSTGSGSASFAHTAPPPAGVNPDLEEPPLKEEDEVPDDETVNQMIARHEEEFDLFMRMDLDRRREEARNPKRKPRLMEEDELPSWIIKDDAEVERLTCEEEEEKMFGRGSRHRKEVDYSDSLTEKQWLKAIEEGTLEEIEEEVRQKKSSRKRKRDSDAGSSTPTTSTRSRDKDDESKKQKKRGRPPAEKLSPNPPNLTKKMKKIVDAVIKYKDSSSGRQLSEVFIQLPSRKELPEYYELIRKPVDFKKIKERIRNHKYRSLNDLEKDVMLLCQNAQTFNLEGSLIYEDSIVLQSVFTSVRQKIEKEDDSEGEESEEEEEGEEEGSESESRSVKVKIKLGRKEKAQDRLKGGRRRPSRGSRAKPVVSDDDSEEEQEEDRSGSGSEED

Chain of BRM (P51531 whole entry): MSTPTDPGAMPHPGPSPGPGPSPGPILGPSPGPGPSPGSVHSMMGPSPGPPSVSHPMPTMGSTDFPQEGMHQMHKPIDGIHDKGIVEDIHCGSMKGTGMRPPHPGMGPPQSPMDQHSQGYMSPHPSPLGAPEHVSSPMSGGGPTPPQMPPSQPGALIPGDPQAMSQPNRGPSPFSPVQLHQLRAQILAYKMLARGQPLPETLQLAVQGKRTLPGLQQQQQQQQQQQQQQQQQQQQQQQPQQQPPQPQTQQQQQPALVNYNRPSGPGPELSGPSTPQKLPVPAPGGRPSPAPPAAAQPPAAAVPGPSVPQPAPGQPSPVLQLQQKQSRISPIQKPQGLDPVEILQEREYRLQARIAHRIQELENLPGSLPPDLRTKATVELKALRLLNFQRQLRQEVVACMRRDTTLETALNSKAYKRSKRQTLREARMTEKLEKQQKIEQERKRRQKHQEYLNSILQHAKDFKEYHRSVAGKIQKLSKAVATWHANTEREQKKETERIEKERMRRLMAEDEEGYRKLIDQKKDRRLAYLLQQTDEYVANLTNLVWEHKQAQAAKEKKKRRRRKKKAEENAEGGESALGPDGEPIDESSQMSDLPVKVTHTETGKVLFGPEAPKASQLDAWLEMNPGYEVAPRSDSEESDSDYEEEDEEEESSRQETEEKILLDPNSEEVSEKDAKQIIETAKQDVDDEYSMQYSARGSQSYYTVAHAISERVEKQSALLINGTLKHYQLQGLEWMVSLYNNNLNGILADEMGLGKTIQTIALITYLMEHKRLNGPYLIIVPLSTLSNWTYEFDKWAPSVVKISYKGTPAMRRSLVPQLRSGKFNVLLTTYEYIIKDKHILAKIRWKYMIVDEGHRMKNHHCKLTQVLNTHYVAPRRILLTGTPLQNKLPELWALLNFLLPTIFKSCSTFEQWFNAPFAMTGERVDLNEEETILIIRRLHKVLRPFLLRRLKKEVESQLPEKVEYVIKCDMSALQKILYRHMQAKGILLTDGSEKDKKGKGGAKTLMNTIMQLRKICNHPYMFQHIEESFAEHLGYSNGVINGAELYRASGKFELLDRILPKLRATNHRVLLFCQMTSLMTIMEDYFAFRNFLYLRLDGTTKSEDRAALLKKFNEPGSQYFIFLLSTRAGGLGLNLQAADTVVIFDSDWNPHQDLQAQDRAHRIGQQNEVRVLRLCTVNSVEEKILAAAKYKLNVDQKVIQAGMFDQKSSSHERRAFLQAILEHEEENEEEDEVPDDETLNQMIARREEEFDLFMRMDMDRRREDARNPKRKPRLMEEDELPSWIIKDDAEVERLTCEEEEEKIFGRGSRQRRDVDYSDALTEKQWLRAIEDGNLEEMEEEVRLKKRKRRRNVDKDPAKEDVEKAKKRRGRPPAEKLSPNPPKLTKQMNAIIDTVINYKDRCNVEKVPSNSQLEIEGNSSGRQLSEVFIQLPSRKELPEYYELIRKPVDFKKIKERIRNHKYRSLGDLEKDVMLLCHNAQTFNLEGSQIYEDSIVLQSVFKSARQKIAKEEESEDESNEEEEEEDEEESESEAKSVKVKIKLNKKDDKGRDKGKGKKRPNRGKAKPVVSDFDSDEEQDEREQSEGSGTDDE

Regarding `C[C@@]1(C#N)COCc2ncc(C(=O)NCc3cc4nc(-c5cccc(C6CC6)n5)ccc4cn3)cc21` [Compound 208], on BRM, the “BRM Max % Inhibition” value is 98% and the IC50 was under 0.1 µM. On BRG-1, the IC50 lay in the range of 100 to 500 nM and the Emax came to 92%.
For the molecule `CC1c2cc(CNC(=O)c3ccc4c(c3)[C@](C)(C#N)COC4)ncc2CCN1c1cncc(C2CC2)n1` (some centres unmarked) [Compound 209], at BRM, the “BRM Max % Inhibition” value turned out to be 89% and the IC50 was in the range of 0.1 to 0.5 µM. Moreover, on BRG-1, the IC50 was in the range of 500 to 1000 nM and the Emax was found to be 51%.
For `C[C@@]1(C#N)COCc2ncc(C(=O)NCc3cc4nc(-c5cccc(N6CCC6)n5)ccc4cn3)cc21` [Compound 210] the same measures were 99%, under 0.1 µM, 100 to 500 nM and 96%.
In the case of `[2H]C1([2H])OC[C@@](C)(F)c2cc(C(=O)NCc3cc4nc(-c5cncc(C6CC6)n5)ccc4cn3)cnc21` [Compound 211], on BRM, the “BRM Max % Inhibition” value stood at 97% and the IC50 was 0.1 to 0.5 µM. Moreover, at BRG-1, the IC50 lay in the range of 500 to 1000 nM and the Emax worked out at 82%.
Regarding `C[C@@H](O)c1cccc(-c2ccc3cnc(CNC(=O)c4cnc5c(c4)[C@](C)(F)COC5)cc3n2)n1` [Compound 212], on BRM, the “BRM Max % Inhibition” value stood at 89% and the IC50 lay within 0.1 to 0.5 µM. Also, at BRG-1, the IC50 was over 1000 nM and the Emax came out at 39%.
As for `C[C@H](O)c1cccc(-c2ccc3cnc(CNC(=O)c4ccc5c(c4)[C@](C)(F)COC5)cc3n2)n1` [Compound 213], on BRM, the “BRM Max % Inhibition” value turned out to be 97% and the IC50 lay within 0.1 to 0.5 µM. At BRG-1, the IC50 was in the range of 500 to 1000 nM and the Emax came out at 63%.
For `C[C@@]1(F)COCc2ccc(C(=O)NCc3cc4nc(-c5cccc(N6CCC6)n5)cnc4cn3)cc21` [Compound 214] the same measures were 99%, under 0.1 µM, 100 to 500 nM and 93%.
The like results for `C[C@@]1(F)COCc2ncc(C(=O)NCc3cc4nc(-c5ccnc(N6CCC6)c5F)cnc4cn3)cc21` [Compound 215] were, in that order, 97%, under 0.1 µM, 100 to 500 nM and 90%.
For `C[C@@]1(F)COCc2ncc(C(=O)NCc3cc4nc(-c5cccc(N6CCC6)n5)cnc4cn3)cc21` [Compound 216] the same measures were 98%, under 0.1 µM, 100 to 500 nM and 90%.
Consider `C[C@@]1(C#N)COCc2ccc(C(=O)NCc3cc4nc(-c5ccnc([C@H]6CC6(F)F)n5)ccc4cn3)cc21` [Compound 217], for which, on BRM, the “BRM Max % Inhibition” value is on record as 98% and the IC50 is under 0.1 µM. On BRG-1, the IC50 fell in the range of 500 to 1000 nM and the Emax came out at 79%.
The like results for `C[C@@]1(C#N)COCc2ccc(C(=O)NCc3cc4nc(-c5ccnc([C@@H]6CC6(F)F)n5)ccc4cn3)cc21` [Compound 218] were, in that order, 99%, under 0.1 µM, 500 to 1000 nM and 79%.
Turning to `C[C@@]1(C#N)COCc2ccc(C(=O)NCc3cc4cc(N5CCn6ncc(C(F)F)c6C5)ccc4nn3)cc21` [Compound 219], on BRM, the “BRM Max % Inhibition” value was determined as 94% and the IC50 was 0.1 to 0.5 µM. Moreover, at BRG-1, the IC50 lay within 500 to 1000 nM and the Emax was found to be 57%.
For `C[C@@]1(C#N)COCc2ccc(C(=O)NCc3cc4cc(N5CCn6ncc(C(F)F)c6C5)cnc4cn3)cc21` [Compound 220] the same measures were 92%, 0.1 to 0.5 µM, over 1000 nM and 47%.
`C[C@@]1(C#N)COCc2ncc(C(=O)NCc3cc4nc(-c5cncc(C6CC6)n5)ccc4cn3)cc21` [Compound 221]: on BRM, the “BRM Max % Inhibition” value is recorded as 99% and the IC50 was under 0.1 µM. In addition, on BRG-1, the IC50 fell in the range of 100 to 500 nM and the Emax turned out to be 88%.
The like results for `[2H]C1([2H])OCc2ncc(C(=O)NCc3cc4nc(-c5cncc(C6CC6)n5)ccc4cn3)cc2[C@]1(C)F` [Compound 222] were, in that order, 98%, under 0.1 µM, 500 to 1000 nM and 83%.
For `CN(C)c1cccc(-c2ccc3nnc(CNC(=O)c4ccc5c(c4)[C@](C)(C#N)COC5)cc3n2)n1` [Compound 223] the same measures were 101%, under 0.1 µM, under 100 nM and 101%.
The like results for `CN(C)c1cccc(-c2ccc3cnc(CNC(=O)c4cnc5c(c4)[C@](F)(C(F)F)COC5)cc3n2)n1` [Compound 224] were, in that order, 101%, under 0.1 µM, under 100 nM and 100%.
Take `COc1nn(C2CC2)cc1-c1ccc2cnc(CNC(=O)c3ccc4c(c3)[C@](C)(C#N)COC4)cc2n1` [Compound 225]: at BRM, the “BRM Max % Inhibition” value is 92% and the IC50 lay in the range of 0.1 to 0.5 µM. At BRG-1, the IC50 was in the range of 500 to 1000 nM and the Emax amounted to 72%.
The like results for `CN(C)c1cccc(-c2ccc3cnc(CNC(=O)c4cc(F)c5c(c4)[C@](F)(C(F)F)COC5)cc3n2)n1` [Compound 226] were, in that order, 98%, 0.1 to 0.5 µM, 100 to 500 nM and 85%.
The like results for `CN(C)c1cccc(-c2ccc3cnc(CNC(=O)c4cnc5c(c4)[C@@](F)(C(F)F)COC5)cc3n2)n1` [Compound 227] were, in that order, 99%, under 0.1 µM, 100 to 500 nM and 94%.
For `O=C(NCc1cc2nc(-c3cncc(C4CC4)n3)ccc2cn1)c1cnc2c(c1)[C@](F)(C(F)F)COC2` [Compound 228] the same measures were 100%, under 0.1 µM, 100 to 500 nM and 98%.
`O=C(NCc1cc2nc(-c3cncc(C4CC4)n3)ccc2cn1)c1cnc2c(c1)[C@@](F)(C(F)F)COC2` [Compound 229]: on BRM, the “BRM Max % Inhibition” value is on record as 100% and the IC50 was under 0.1 µM. Besides, at BRG-1, the IC50 fell in the range of 100 to 500 nM and the Emax was 90%.
The like results for `C[C@@]1(C#N)COCc2ccc(C(=O)NCc3cc4c(cn3)CCN(c3ccc(=O)n(C5CC5)n3)C4)cc21` [Compound 230] were, in that order, 97%, 0.1 to 0.5 µM, 500 to 1000 nM and 62%.
On to `Cc1cc(-c2ccc3cnc(CNC(=O)c4ccc5c(c4)[C@](C)(C#N)COC5)cc3n2)on1` [Compound 231], for which, at BRM, the “BRM Max % Inhibition” value is 91% and the IC50 fell in the range of 0.1 to 0.5 µM. Moreover, at BRG-1, the IC50 is over 1000 nM and the Emax came to 46%.
For `C[C@@]1(F)COCc2ccc(C(=O)NCc3cc4nc(-c5ccc(=O)n(C6CC6)n5)ccc4cn3)cc21` [Compound 233] the same measures were 98%, 0.1 to 0.5 µM, 500 to 1000 nM and 74%.
For `C[C@@]1(C#N)COCc2ccc(C(=O)NCc3cc4c(nn3)CCN(c3cccc(N5CCC5)n3)C4)cc21` [Compound 234] the same measures were 96%, 0.1 to 0.5 µM, 500 to 1000 nM and 49%.
